Measurements from ChEMBL document CHEMBL1201862, “PubChem BioAssay data set” (2004).
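Compound exposure: 48 hours, 5 concentrations, 96-well plates. GI50 is the concentration that inhibits growth by half.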 The source made the active and inactive calls. No stated cut-off is given here; in the data, active = GI50 up to about 1.1 µM and inactive = higher.

Key:
Test in all cases: growth of human tumour cells (NCI), 48 h
BT-549 = tested on: BT-549
CAKI-1 = tested on: CAKI-1
COLO 205 = tested on: COLO 205
DU-145 = tested on: DU-145
HCT-116 = tested on: HCT-116
HOP-62 = tested on: HOP-62
HOP-92 = tested on: HOP-92
IGROV-1 = tested on: IGROV-1
K562 = tested on: K562
NCI-H460 = tested on: NCI-H460
OVCAR-3 = tested on: OVCAR-3
OVCAR-8 = tested on: OVCAR-8
PC-3 = tested on: PC-3
RPMI-8226 = tested on: RPMI-8226
SF-268 = tested on: SF-268
SK-MEL-5 = tested on: SK-MEL-5
SW-620 = tested on: SW-620
SK-MEL-2 = tested on: SK-MEL-2
LOX IMVI = tested on: LOX IMVI
SR = tested on: SR

Measured: GI50

CCOC(=O)[C@H]1O[C@@H]1C(=O)NC(CC(C)C)C(=O)NCCC(C)C (stereo not given in full)
inactive: BT-549 > 100 µM | CAKI-1 > 100 µM | COLO 205 > 100 µM | DU-145 > 100 µM | HCT-116 > 100 µM | HOP-62 > 100 µM | HOP-92 > 100 µM | IGROV-1 > 100 µM | K562 > 100 µM | NCI-H460 > 100 µM | OVCAR-3 > 100 µM | OVCAR-8 > 100 µM | PC-3 > 100 µM | RPMI-8226 > 100 µM | SF-268 > 100 µM | SK-MEL-5 > 100 µM | SW-620 > 100 µM

CCCCSC1=N/C(=C\c2ccco2)C(Cl)=N1
inactive: BT-549 > 100 µM | CAKI-1 > 100 µM | COLO 205 > 100 µM | DU-145 > 100 µM | HCT-116 > 100 µM | HOP-62 > 100 µM | IGROV-1 > 100 µM | NCI-H460 > 100 µM | OVCAR-3 > 100 µM | OVCAR-8 > 100 µM | PC-3 > 100 µM | RPMI-8226 > 100 µM | SF-268 > 100 µM | SK-MEL-2 > 100 µM | SK-MEL-5 > 100 µM | SW-620 > 100 µM

C=CCCC(On1c(-c2ccc(Cl)cc2)csc1=S)c1ccccc1 (stereo not given)
inactive: BT-549 58.3 µM | CAKI-1 > 100 µM | COLO 205 22.5 µM | DU-145 49.4 µM | HCT-116 7.03 µM | HOP-62 90.6 µM | HOP-92 40.6 µM | IGROV-1 20.2 µM | K562 9.51 µM | LOX IMVI 33.6 µM | OVCAR-3 23 µM | OVCAR-8 98.6 µM | PC-3 27.3 µM | RPMI-8226 31.8 µM | SF-268 34 µM | SK-MEL-2 14.9 µM | SK-MEL-5 14.9 µM | SW-620 8.73 µM

N#C/C(=C1\N=C(c2ccccc2O)Oc2ccccc21)c1ccc([N+](=O)[O-])cc1
inactive: BT-549 > 100 µM | CAKI-1 > 100 µM | COLO 205 > 100 µM | DU-145 > 100 µM | HCT-116 > 100 µM | HOP-62 33.8 µM | HOP-92 > 100 µM | IGROV-1 88.9 µM | K562 > 100 µM | LOX IMVI > 100 µM | NCI-H460 > 100 µM | OVCAR-3 > 100 µM | OVCAR-8 > 100 µM | PC-3 > 100 µM | RPMI-8226 > 100 µM | SF-268 > 100 µM | SK-MEL-2 > 100 µM | SK-MEL-5 > 100 µM | SW-620 > 100 µM

CCC(=O)N1C(=O)C(CC)(CC)C(=O)N1C(=O)CC
inactive: BT-549 > 100 µM | CAKI-1 > 100 µM | COLO 205 > 100 µM | DU-145 > 100 µM | HCT-116 > 100 µM | HOP-62 > 100 µM | IGROV-1 > 100 µM | K562 > 100 µM | NCI-H460 > 100 µM | OVCAR-3 > 100 µM | OVCAR-8 > 100 µM | PC-3 > 100 µM | RPMI-8226 > 100 µM | SF-268 > 100 µM | SK-MEL-2 > 100 µM | SK-MEL-5 > 100 µM | SR > 100 µM | SW-620 > 100 µM

COCCn1cnc2c(Cl)nc(Nc3ccccc3)nc21
inactive: BT-549 27.4 µM | COLO 205 76.2 µM | DU-145 > 100 µM | HCT-116 27.7 µM | HOP-62 59.7 µM | IGROV-1 21.2 µM | K562 25.9 µM | LOX IMVI 17 µM | NCI-H460 82.4 µM | OVCAR-3 16.5 µM | OVCAR-8 23.9 µM | PC-3 22.3 µM | RPMI-8226 86.9 µM | SF-268 39.4 µM | SK-MEL-2 17.7 µM | SK-MEL-5 38.7 µM | SR 26.2 µM | SW-620 32.3 µM

CN(/N=C/c1ccccn1)C1=NCCN1
inactive: BT-549 > 100 µM | CAKI-1 > 100 µM | COLO 205 > 100 µM | HCT-116 > 100 µM | HOP-62 > 100 µM | HOP-92 > 100 µM | IGROV-1 > 100 µM | K562 > 100 µM | LOX IMVI > 100 µM | NCI-H460 > 100 µM | OVCAR-3 > 100 µM | OVCAR-8 > 100 µM | PC-3 > 100 µM | RPMI-8226 > 100 µM | SF-268 > 100 µM | SK-MEL-2 > 100 µM | SK-MEL-5 > 100 µM | SR > 100 µM | SW-620 > 100 µM
